Assay results reported in ChEMBL document CHEMBL1821627, “Medicinal chemistry as a conduit for the modulation of quorum sensing” (J Med Chem, 2010).
One block for each molecule: values may come before it. Where a SMILES comes first, the peptide text is derived from it. Bridges are numbered along the chain shown (N, C = ends).

What was measured:
[1] = biological target: T1, Transcriptional activator protein LasR (Pseudomonas aeruginosa (strain ATCC 15692 / PAO1 / 1C / PRS 101 / LMG12228), UniProt P25084); assay: Agonist activity at Pseudomonas aeruginosa LasR receptor expressed in Escherichia coli in absence of natural autoinducer; format: functional
T1 sequence (P25084 whole entry): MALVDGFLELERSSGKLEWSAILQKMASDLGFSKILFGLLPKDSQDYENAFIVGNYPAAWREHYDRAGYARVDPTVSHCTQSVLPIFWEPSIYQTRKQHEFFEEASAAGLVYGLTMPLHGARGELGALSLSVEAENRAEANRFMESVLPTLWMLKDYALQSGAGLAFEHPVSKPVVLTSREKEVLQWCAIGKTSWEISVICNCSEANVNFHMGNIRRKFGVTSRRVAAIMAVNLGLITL

[2] = biological target: T2, Transcriptional activator protein TraR (Agrobacterium tumefaciens, UniProt P33905); assay: Antagonist activity at Agrobacterium tumefaciens TraR receptor in presence of 100 nM 3-oxo-C8-HSL; format: functional
T2 sequence (P33905 whole entry): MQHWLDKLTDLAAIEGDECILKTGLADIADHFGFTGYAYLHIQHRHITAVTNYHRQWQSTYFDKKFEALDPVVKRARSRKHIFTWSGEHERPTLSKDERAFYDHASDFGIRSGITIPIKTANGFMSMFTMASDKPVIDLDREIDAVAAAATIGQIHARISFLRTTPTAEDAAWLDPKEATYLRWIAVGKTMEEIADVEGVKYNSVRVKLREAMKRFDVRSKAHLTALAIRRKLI

[3] = biological target: T3, Transcriptional activator protein LuxR (Aliivibrio fischeri, UniProt P12746); assay: Antagonist activity at Vibrio fischeri luxR receptor in presence of 5 uM 3-oxo-C6-HSL; format: functional
T3 sequence (P12746 whole entry): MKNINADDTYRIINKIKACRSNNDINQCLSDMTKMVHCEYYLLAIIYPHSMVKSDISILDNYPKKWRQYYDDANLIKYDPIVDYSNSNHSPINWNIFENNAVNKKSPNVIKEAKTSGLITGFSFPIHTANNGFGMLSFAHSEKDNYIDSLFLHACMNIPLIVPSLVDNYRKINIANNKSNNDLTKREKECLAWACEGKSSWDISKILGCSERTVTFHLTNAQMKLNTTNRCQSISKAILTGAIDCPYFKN

[4] = Inhibition of Staphylococcus aureus Quorum sensing system AgrC-II activation after 60 to 90 minutes by beta-lactamase reporter assay; settings: read-out: IC50
[5] = Inhibition of Staphylococcus aureus Quorum sensing system AgrC-I activation after 60 to 90 minutes by beta-lactamase reporter assay; settings: read-out: IC50
[6] = Inhibition of Staphylococcus aureus Quorum sensing system AgrC-IV activation after 60 to 90 minutes by beta-lactamase reporter assay
[7] = Inhibition of Staphylococcus aureus Quorum sensing system AgrC-III activation after 60 to 90 minutes by […]
[8] = biological target: T1, Transcriptional activator protein LasR; assay: Agonist activity at Pseudomonas aeruginosa LasR cognate receptor expressed in Escherichia coli harboring pKDT17 assessed as activation of lasB expression by LacZ reporter gene assay; format: functional
[9] = Inhibition of autoinducer-stimulated quorum sensing regulated bioluminescence in Vibrio fischeri by luminescence assay; design: species or system Aliivibrio fischeri
[10] = biological target: T1, Transcriptional activator protein LasR; assay: Antagonist activity at Pseudomonas aeruginosa LasR receptor expressed in Escherichia coli in presence of 7.5 nM natural auto-inducer 3-oxo-C12-HSL; format: functional
[11] = biological target: T3, Transcriptional activator protein LuxR; assay: Agonist activity at Vibrio fischeri luxR receptor in absence of natural autoinducer; format: functional
PC-3 = assay: Growth inhibition of human PC3 cells; format: functional, cell-based

SMILES: CCCCCCC(=O)N[C@H]1CCOC1=O
IC50 [2]: 0.69 µM
IC50 [3]: 1.36 µM

SMILES: CCCCCCCCCCCC(=O)CC(=O)N[C@H]1CCOC1=O
EC50 [8]: 0.015 µM
EC50 [1]: 0.01 µM

SMILES: CCCCCCCCCC(=O)N[C@H]1CCOC1=O
IC50 [2]: 1.05 µM
IC50 [3]: 0.4 µM
IC50 [9]: 0.0392 µM
IC50 [10]: 0.25 µM

SMILES: O=C(Cc1cccc([N+](=O)[O-])c1)N[C@H]1CCOC1=O
EC50 [11]: 0.35 µM

SMILES: O=C(CCCCCCCCCCCc1ccccc1)N[C@H]1CCOC1=O
IC50 (PC-3): > 100 µM

Second part, the molecule after the results:

EC50 [1]: 0.54 µM
SMILES: O=C(CC(=O)N[C@H]1CCOC1=O)Cc1ccccc1

IC50 [4]: 0.209 µM
IC50 [5]: 0.272 µM
IC50 [6]: 0.188 µM
IC50 [7]: 0.01 µM
SMILES: CC(=O)N[C@H]1CSC(=O)[C@H](Cc2ccccc2)NC(=O)[C@H](CC(C)C)NC(=O)[C@H](CO)NC(=O)[C@H](CO)NC1=O (Ac-CSSLF; thioester 1-C)
